From PMC12452389, “Arginine-Derived Cationic Surfactants Containing Phenylalanine and Tryptophan: Evaluation of Antifungal Activity, Biofilm Eradication, Cytotoxicity, and Ecotoxicity” (Journal of Xenobiotics, 2025)
Converted amounts (≈) assume the structure as drawn. “And” between values parts separate entries of the source, which are not always exact repeats. Equal values may be shown once. Where a name gives a salt, the structure may show the parent alone. Read-outs that look alike come from different tables or passages of the source.

Legend:
[1] = Surface tension, pendant drop tensiometer (cmc, γc); format: physicochemical; conditions: for cmc: from surface tension
Experimental: Surface tension was measured using a custom-built pendant drop tensiometer, as described in detail in reference. Briefly, a droplet of surfactant solution is formed at the tip of a straight-cut Teflon tube. The image of the droplet is captured using a webcam, and its shape is analyzed by fitting the droplet profile to the Laplace–Young equation [14], To minimize evaporation, all measurements were conducted in a saturated humid atmosphere. The use of this technique is especially well-suited for cationic surfactants because it helps to mitigate complications related to surface adsorption. Critical micelle concentration values (cmc) were determined by finding the intersection of the linear fits before and after the break in the curves.

[2] = system: Candida albicans ATCC 90028; experiment: MIC broth microdilution; format: cell-based; conditions: C. albicans; for MIC: Candida albicans, ATCC90028, read-out: MIC
Summary of the method: (§1)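 Broth microdilution in RPMI 1640, twofold compound dilutions 256–2 μg/mL, final inoculum 7.5 × 10^5 CFU/mL from Sabouraud-grown colonies. MIC read by turbidity and confirmed by 0.015% resazurin, 3 h at 30 °C, blue-to-pink colour change.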

[3] = system: Candida auris ATCC 21092; experiment: MIC broth microdilution; format: cell-based; conditions: C. auris; for MIC: Candidozyma auris, ATCC21092, read-out: MIC
Summary of the method: as §1

[4] = system: Candida glabrata ATCC 66032; experiment: MIC broth microdilution; format: cell-based; conditions: for MIC: Nakaseomyces glabratus, read-out: MIC
Summary of the method: as §1

[5] = system: Candida parapsilosis ATCC 22019; experiment: MIC broth microdilution; format: cell-based; conditions: C. parapsilosis; for MIC: Lodderomyces parapsilosis, ATCC22019, read-out: MIC
Summary of the method: as §1

[6] = system: Candida rugosa ATCC 10571; experiment: MIC broth microdilution; format: cell-based; conditions: C. rugosa; for MIC: Diutina rugosa, ATCC10571, read-out: MIC
Summary of the method: as §1

[7] = system: Candida tropicalis ATCC 7349; experiment: MIC broth microdilution; format: cell-based; conditions: C. tropicalis; for MIC: Candida tropicalis, ATCC7349, read-out: MIC
Summary of the method: as §1

[8] = system: Cyberlindnera jadinii ATCC 60459 (C. jardinii); experiment: MIC broth microdilution; format: cell-based; conditions: for Selectivity Index (HC50/MIC): C. jardini; for MIC: Williopsis jadinii
Summary of the method: as §1

[9] = system: erythrocytes; experiment: Hemolytic activity assay; format: cell-based; conditions: rabbit erythrocytes
Summary of the method: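 Rabbit erythrocytes washed in PBS pH 7.4, exposed to varying surfactant concentrations in PBS for 10 min at room temperature. Hemolysis read as supernatant absorbance at 540 nm relative to distilled-water 100% lysis control; HC50 taken from concentration–response curves.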

[10] = system: Daphnia magna; experiment: Acute toxicity, immobilization test; format: in vivo; conditions: Daphnia magna, 48 h
Summary of the method: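 Neonates under 24 h old exposed in the dark at 20 °C, pH 8.0, Ca:Mg 4:1, hardness 250 mg/L as CaCO3, to ten geometric concentrations, 4 replicates of 5 animals. Immobility (no swimming after 15 s gentle stimulation) scored at 48 h; immobilization plotted against concentration on probability–log scale.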

[11] = system: Vibrio fischeri; experiment: Luminescence reduction test; format: cell-based; conditions: Aliivibrio fischeri, 0.25 h; Vibrio fischeri bioluminescence, 15 min of exposure; 95% confidence intervals in parentheses
Experimental: Ecotoxicological assessment of cationic surfactants was conducted using the Vibrio fischeri luminescent bioassay. This method relies on the measurement of decreased bioluminescent output from marine bacteria following contact with potentially toxic substances. Regression analysis was used to determine the concentration of the compound that caused a 50% reduction (EC50) in the amount of light emitted by the bacteria. The stated toxicity statistics given are based on the bacteria being exposed to the ionic liquid solution for 15 min at 15 °C.

[12] = design: method as in PMID 36559096; conditions: conductivity values; cited from earlier work
[13] = ATCC66032, 24 h, C. glabrata, RPMI 1640, 24 h, 30 °C
[14] = ATCC66032, C. glabrata, value in parentheses
[15] = ATCC60459, C. jardinii, value in parentheses, read-out: MIC
[16] = ATCC60459, C. jardinii, RPMI 1640, 24 h, 30 °C, read-out: MIC

| Structure (SMILES) | γc (surface tension at the cmc) [1] [mNm^−1] | cmc [1] [mM] | Selectivity Index (HC50/MIC) ([2]; Table S2) | MIC ([2]; RPMI 1640, 24 h, 30 °C) [µg/mL] | MIC ([2]; value in parentheses) [µM] | Selectivity Index (HC50/MIC) ([3]; Table S2) | MIC ([3]; RPMI 1640, 24 h, 30 °C) [µg/mL] | MIC ([3]; value in parentheses) [µM] | Selectivity Index (HC50/MIC) ([4]; C. glabrata, Table S2) | MIC [4, 13] [µg/mL] | MIC [4, 14] [µM] | Selectivity Index (HC50/MIC) ([5]; Table S2) | MIC ([5]; RPMI 1640, 24 h, 30 °C) [µg/mL] | MIC ([5]; value in parentheses) [µM] | Selectivity Index (HC50/MIC) ([6]; Table S2) | MIC ([6]; RPMI 1640, 24 h, 30 °C) [µg/mL] | MIC ([6]; value in parentheses) [µM] | Selectivity Index (HC50/MIC) ([7]; Table S2) | MIC ([7]; RPMI 1640, 24 h, 30 °C) [µg/mL] | MIC ([7]; value in parentheses) [µM] | other results |
| --- | --- | --- | --- | --- | --- | --- | --- | --- | --- | --- | --- | --- | --- | --- | --- | --- | --- | --- | --- | --- | --- |
| CCCCCCCCCCCCNC(=O)C(CCCNC(=N)N)NC(=O)C(N)Cc1ccccc1 (stereo not shown) [PANHC12, phenylalanine-arginine dodecyl amide dihydrochloride] | 30.4 ± 2.6 | 1.5 | 0.8 | 32 | 56 | 0.4 | 64 | 112 | 0.8 | 32 | 56 | 0.8 | 32 | 56 | 0.4 | 64 | 112 | 0.8 | 32 | 56 | Selectivity Index (HC50/MIC) ([2]; Table S1): 0.8; Selectivity Index (HC50/MIC) ([3]; Table S1): 0.4; Selectivity Index (HC50/MIC) ([4]; C. glabrata, Table S1): 0.8; Selectivity Index (HC50/MIC) ([5]; Table S1): 0.8; Selectivity Index (HC50/MIC) ([6]; Table S1): 0.4; Selectivity Index (HC50/MIC) ([7]; Table S1): 0.8; Selectivity Index (HC50/MIC) ([8]; Table S1): 0.8; Selectivity Index (HC50/MIC) ([8]; Table S2): 0.8; MIC ([8]; ATCC60459, 24 h): 32 µg/mL and 88 µM; MIC [8, 15]: 56 µM; HC50 ([9]; 10 min, room temperature): 26 ± 1.2 µg/mL; HC50 ([9]; value in parentheses): 46 ± 2.2 µM; EC50 [10]: 3.4 µg/mL; EC50 [11]: 3 µg/mL; cmc Cond [12]: 2.2 mM |
| CCCCCCCCCCCCCCNC(=O)C(CCCNC(=N)N)NC(=O)C(N)Cc1ccccc1 (stereo not shown) [PANHC14] | 28.7 ± 1.5 | 0.35 | 1.2 | 16 | 27 | 1.2 | 16 | 27 | 2.4 | 8 | 14 | 2.4 | 8 | 14 | 1.2 | 16 | 27 | 2.4 | 8 | 14 | Selectivity Index (HC50/MIC) ([8]; Table S2): 1.2; MIC [8, 16]: 16 µg/mL; MIC [8, 15]: 27 µM; HC50 ([9]; 10 min, room temperature): 20 ± 0.5 µg/mL; HC50 ([9]; value in parentheses): 34 ± 0.8 µM; EC50 [10]: 0.71 µg/mL (≈ 1.37 µM); EC50 [11]: 1.8 µg/mL (≈ 3.48 µM); cmc Cond [12]: 0.7 mM |
| CCCCCCCCCCNC(=O)C(CCCNC(=N)N)NC(=O)C(N)Cc1ccccc1 (stereo not shown) [PANHC10] | 30.6 ± 9.7 | 6.7 | 1.6 | 128 | 240 | 0.8 | 256 | 480 | 3.7 | 64 | 120 | 3.7 | 64 | 120 | 1.6 | 128 | 240 | 1.6 | 128 | 240 | Selectivity Index (HC50/MIC) ([8]; Table S2): 1.6; MIC [8, 16]: 128 µg/mL; MIC [8, 15]: 240 µM; HC50 ([9]; 10 min, room temperature): 215 ± 22 µg/mL; HC50 ([9]; value in parentheses): 404 ± 42 µM; EC50 [10]: 22 µg/mL (≈ 47.8 µM); EC50 [11]: 5.6 µg/mL (≈ 12.2 µM); cmc Cond [12]: 7.2 mM |
